Earlier results, collected in patent US20130178603A1, “MULTI-MODE CANCER TARGETED NANOPARTICULATE SYSTEM AND A METHOD OF SYNTHESIZING THE SAME” (priority 2012, published 2013).

Conditions: after I.V administration

- mean distribution half-life: 1.5 to 3.5 h
SMILES: CN(Cc1cnc2nc(N)nc(N)c2n1)c1ccc(C(=O)N[C@@H](CCC(=O)O)C(=O)O)cc1 [MTX, methotrexate]
